The source made the active and inactive calls. The rule behind the calls is not given here.
Experiments:
Plasmodium falciparum [1] = experiment: In vitro antimalarial activity for Plasmodium falciparum at 1 uM/well dose at 24 hrs in Schizont maturation assay; type: functional
Plasmodium falciparum [2] = experiment: In vitro antimalarial activity for chloroquine-resistant Plasmodium falciparum at 16 uM/well dose at 24 hrs in Schizont maturation assay; type: functional
Plasmodium falciparum [3] = experiment: In vitro inhibition of Plasmodium falciparum at 4 uM/well dose at 72 hrs in total parasite growth assay; type: functional
Plasmodium falciparum [4] = experiment: In vitro antimalarial activity for chloroquine-resistant Plasmodium falciparum at 1 uM/well dose at 24 hrs in Schizont maturation assay; type: functional
Plasmodium falciparum [5] = experiment: In vitro inhibition of Plasmodium falciparum at 2 uM/well dose at 72 hrs in total parasite growth assay; type: functional
Plasmodium falciparum [6] = experiment: In vitro antimalarial activity for chloroquine-resistant Plasmodium falciparum at 64 uM/well dose at 24 hrs in Schizont maturation assay; type: functional
Plasmodium falciparum [7] = experiment: In vitro inhibition of Plasmodium falciparum at 64 uM/well dose at 72 hrs in total parasite growth assay; type: functional
Plasmodium falciparum [8] = experiment: In vitro inhibition of Plasmodium falciparum at 1.0 uM/well dose at 72 hrs in total parasite growth assay; type: functional
Plasmodium falciparum [9] = experiment: In vitro antimalarial activity for Plasmodium falciparum at 32 uM/well dose at 24 hrs in Schizont maturation assay; type: functional
Plasmodium falciparum [10] = experiment: In vitro inhibition of Plasmodium falciparum at 32 uM/well dose at 72 hrs in total parasite growth assay; type: functional
Plasmodium falciparum [11] = experiment: In vitro inhibition of Plasmodium falciparum at 16 uM/well dose at 72 hrs in total parasite growth assay; type: functional
Plasmodium falciparum [12] = experiment: In vitro antimalarial activity for Plasmodium falciparum at 4 uM/well dose at 24 hrs in Schizont maturation assay; type: functional
Plasmodium falciparum [13] = experiment: In vitro antimalarial activity for Plasmodium falciparum at 8 uM/well dose at 24 hrs in Schizont maturation assay; type: functional
Plasmodium falciparum [14] = experiment: In vitro antimalarial activity for Plasmodium falciparum at 16 uM/well dose at 24 hrs in Schizont maturation assay; type: functional
Plasmodium falciparum [15] = experiment: In vitro antimalarial activity for chloroquine-resistant Plasmodium falciparum at 2 uM/well dose at 24 hrs in Schizont maturation assay; type: functional
Plasmodium falciparum [16] = experiment: In vitro antimalarial activity for chloroquine-resistant Plasmodium falciparum at 32 uM/well dose at 24 hrs in Schizont maturation assay; type: functional
Plasmodium falciparum [17] = experiment: In vitro antimalarial activity for chloroquine-resistant Plasmodium falciparum at a dose of 4 uM/well through Schizonts maturation assay over 24 hr; type: functional
Plasmodium falciparum [18] = experiment: In vitro antimalarial activity for Plasmodium falciparum at 2 uM/well dose at 24 hrs in Schizont maturation assay; type: functional
Plasmodium falciparum [19] = experiment: In vitro antimalarial activity for chloroquine-resistant Plasmodium falciparum at 8 uM/well dose at 24 hrs in Schizont maturation assay; type: functional
Plasmodium falciparum [20] = experiment: In vitro inhibition of Plasmodium falciparum at 8 uM/well dose at 72 hrs in total parasite growth assay; type: functional
Plasmodium falciparum [21] = experiment: In vitro antimalarial activity for Plasmodium falciparum at 64 uM/well dose at 24 hrs in Schizont maturation assay; type: functional
Plasmodium falciparum [22] = experiment: In vitro inhibition of chloroquine-resistant Plasmodium falciparum at 0.5 uM/well dose at 72 hrs in total parasite growth assay; type: functional
Plasmodium falciparum [23] = experiment: In vitro antimalarial activity for Plasmodium falciparum at 0.25 uM/well dose at 24 hrs in Schizont maturation assay; type: functional
Plasmodium falciparum [24] = experiment: In vitro inhibition of Plasmodium falciparum at 20 uM/well dose at 72 hrs in total parasite growth assay; type: functional
Plasmodium falciparum [25] = experiment: In vitro antimalarial activity for Plasmodium falciparum at 10 uM/well dose at 24 hrs in Schizont maturation assay; type: functional
Plasmodium falciparum [26] = experiment: In vitro antimalarial activity for Plasmodium falciparum at 0.50 uM/well dose at 24 hrs in Schizont maturation assay; type: functional
Plasmodium falciparum [27] = experiment: In vitro inhibition of Plasmodium falciparum at 50 uM/well dose at 72 hrs in total parasite growth assay; type: functional
Plasmodium falciparum [28] = experiment: In vitro inhibition of Plasmodium falciparum at 10 uM/well dose at 72 hrs in total parasite growth assay; type: functional
Plasmodium falciparum [29] = experiment: In vitro antimalarial activity for Plasmodium falciparum at 2.5 uM/well dose at 24 hrs in Schizont maturation assay; type: functional
Mus musculus [30] = experiment: Antimalarial activity against Plasmodium berghei evaluated in terms of mean survival time for mice (Mus musculus) at a dose of 40 mg/kg; type: functional
Plasmodium falciparum [31] = experiment: In vitro antimalarial activity for chloroquine-resistant Plasmodium falciparum at 10 uM/well dose at 24 hrs in Schizont maturation assay; type: functional
Plasmodium falciparum [32] = experiment: In vitro antimalarial activity for chloroquine-resistant Plasmodium falciparum at 50 uM/well dose at 24 hrs in Schizont maturation assay; type: functional
Plasmodium falciparum [33] = experiment: In vitro inhibition of Plasmodium falciparum at 0.5 uM/well dose at 72 hrs in total parasite growth assay; type: functional
Plasmodium falciparum [34] = experiment: In vitro antimalarial activity for Plasmodium falciparum at 0.10 uM/well dose at 24 hrs in Schizont maturation assay; type: functional
Plasmodium falciparum [35] = experiment: In vitro inhibition of Plasmodium falciparum at 2.5 uM/well dose at 72 hrs in total parasite growth assay; type: functional
Plasmodium falciparum [36] = experiment: In vitro antimalarial activity for chloroquine-resistant Plasmodium falciparum at 2.5 uM/well dose at 24 hrs in Schizont maturation assay; type: functional
Plasmodium falciparum [37] = experiment: In vitro antimalarial activity for chloroquine-resistant Plasmodium falciparum at 5 uM/well dose at 24 hrs in Schizont maturation assay; type: functional
Mus musculus [38] = experiment: Antimalarial activity against Plasmodium berghei evaluated in terms of mean survival time for mice (Mus musculus) at a dose of 160 mg/kg; type: functional
Plasmodium falciparum [39] = experiment: In vitro antimalarial activity for Plasmodium falciparum at 5 uM/well dose at 24 hrs in Schizont maturation assay; type: functional
Plasmodium falciparum [40] = experiment: In vitro antimalarial activity for chloroquine-resistant Plasmodium falciparum at 100 uM/well dose at 24 hrs in Schizont maturation assay; type: functional
Plasmodium falciparum [41] = experiment: In vitro inhibition of Plasmodium falciparum at 100 uM/well dose at 72 hrs in total parasite growth assay; type: functional
Plasmodium falciparum [42] = experiment: In vitro antimalarial activity for chloroquine-resistant Plasmodium falciparum at 0.10 uM/well dose at 24 hrs in Schizont maturation assay; type: functional
Mus musculus [43] = experiment: Antimalarial activity against Plasmodium berghei evaluated in terms of mean survival time for mice (Mus musculus) at a dose of 80 mg/kg; type: functional
Mus musculus [44] = experiment: In vivo anti-malarial activity against Plasmodium berghei in mice (Mus musculus) at a dose of 160 mg/kg; Active; type: functional, organism-based; set-up: dose 160 mg/kg
Plasmodium falciparum [45] = experiment: In vitro inhibition of chloroquine-resistant Plasmodium falciparum at 1.0 uM/well dose at 72 hrs in total parasite growth assay; type: functional
Plasmodium falciparum [46] = experiment: In vitro antimalarial activity for chloroquine-resistant Plasmodium falciparum at 20 uM/well dose at 24 hrs in Schizont maturation assay; type: functional
Mus musculus [47] = experiment: Anti-malarial activity against Plasmodium berghei evaluated in terms of mean survival time for mice (Mus musculus) at a dose of 20 mg/kg; type: functional
Plasmodium falciparum [48] = experiment: In vitro antimalarial activity for Plasmodium falciparum at 500 uM/well dose at 24 hrs in Schizont maturation assay; type: functional
Plasmodium falciparum [49] = experiment: In vitro antimalarial activity for chloroquine-resistant Plasmodium falciparum at 0.25 uM/well dose at 24 hrs in Schizont maturation assay; type: functional
Plasmodium falciparum [50] = experiment: In vitro antimalarial activity for Plasmodium falciparum at 100 uM/well dose at 24 hrs in Schizont maturation assay; type: functional
Mus musculus [51] = experiment: In vivo anti-malarial activity against Plasmodium berghei in mice (Mus musculus) at a dose of 80 mg/kg; Active; type: functional, organism-based; set-up: dose 80 mg/kg
Plasmodium falciparum [52] = experiment: In vitro antimalarial activity for Plasmodium falciparum at 50 uM/well dose at 24 hrs in Schizont maturation assay; type: functional
Plasmodium falciparum [53] = experiment: In vitro antimalarial activity for Plasmodium falciparum at 20 uM/well dose at 24 hrs in Schizont maturation assay; type: functional
Plasmodium falciparum [54] = experiment: In vitro antimalarial activity for chloroquine-resistant Plasmodium falciparum at 0.5 uM/well dose at 24 hrs in Schizont maturation assay; type: functional
Plasmodium falciparum [55] = experiment: In vitro inhibition of Plasmodium falciparum at 0.25 uM/well dose at 72 hrs in total parasite growth assay; type: functional
Plasmodium falciparum [56] = experiment: In vitro inhibition of Plasmodium falciparum at 25 uM/well dose at 72 hrs in total parasite growth assay; type: functional
Plasmodium falciparum [57] = experiment: In vitro inhibition of Plasmodium falciparum at 5 uM/well dose at 72 hrs in total parasite growth assay; type: functional
Plasmodium falciparum [58] = experiment: In vitro inhibition of chloroquine-resistant Plasmodium falciparum at 0.25 uM/well dose at 72 hrs in total parasite growth assay; type: functional

CCN(CC)CCCC(C)Nc1ccnc2cc(Cl)ccc12.O=P(O)(O)O.O=P(O)(O)O (stereo unspecified) [CHLOROQUINE PHOSPHATE]
inhibition at 1 µM (Plasmodium falciparum [1]): 0%
inhibition at 16 µM (Plasmodium falciparum [2]): 100%
PGI (Plasmodium falciparum [3]): 91.7%
inhibition at 1 µM (Plasmodium falciparum [4]): 0%
PGI (Plasmodium falciparum [5]): 58.3%
inhibition at 64 µM (Plasmodium falciparum [6]): 100%
PGI (Plasmodium falciparum [7]): 100%
PGI (Plasmodium falciparum [8]): 16.7%
inhibition at 32 µM (Plasmodium falciparum [9]): 100%
PGI (Plasmodium falciparum [10]): 100%
PGI (Plasmodium falciparum [11]): 100%
inhibition at 4 µM (Plasmodium falciparum [12]): 39.4%
inhibition at 8 µM (Plasmodium falciparum [13]): 86.8%
inhibition at 16 µM (Plasmodium falciparum [14]): 100%
inhibition at 2 µM (Plasmodium falciparum [15]): 16%
inhibition at 32 µM (Plasmodium falciparum [16]): 100%
inhibition at 4 µM (Plasmodium falciparum [17]): 39.4%
inhibition at 2 µM (Plasmodium falciparum [18]): 16%
inhibition at 8 µM (Plasmodium falciparum [19]): 86.8%
PGI (Plasmodium falciparum [20]): 100%
inhibition at 64 µM (Plasmodium falciparum [21]): 100%

C=C(C#N)C(O)c1ccc([N+](=O)[O-])cc1 (stereo unspecified)
PGI (Plasmodium falciparum [22]): 82%
inhibition at 0.25 µM (Plasmodium falciparum [23]): 56.4%
PGI (Plasmodium falciparum [24]): 100%
inhibition at 1 µM (Plasmodium falciparum [1]): 75.2%
inhibition at 10 µM (Plasmodium falciparum [25]): 100%
inhibition at 0.5 µM (Plasmodium falciparum [26]): 68%
PGI (Plasmodium falciparum [27]): 100%
PGI (Plasmodium falciparum [28]): 100%
inhibition at 2.5 µM (Plasmodium falciparum [29]): 84%
Mean survival time (Mus musculus [30]): 11.8 days
inhibition at 10 µM (Plasmodium falciparum [31]): 100%
inhibition at 1 µM (Plasmodium falciparum [4]): 86%
inhibition at 50 µM (Plasmodium falciparum [32]): 100%
PGI (Plasmodium falciparum [33]): 92%
inhibition at 0.1 µM (Plasmodium falciparum [34]): 41.2%
PGI (Plasmodium falciparum [35]): 100%
PGI (Plasmodium falciparum [8]): 100%
inhibition at 2.5 µM (Plasmodium falciparum [36]): 100%
inhibition at 5 µM (Plasmodium falciparum [37]): 100%
Mean survival time (Mus musculus [38]): 14.4 days
inhibition at 5 µM (Plasmodium falciparum [39]): 100%
inhibition at 100 µM (Plasmodium falciparum [40]): 100%
PGI (Plasmodium falciparum [41]): 100%
inhibition at 0.1 µM (Plasmodium falciparum [42]): 47.7%
Mean survival time (Mus musculus [43]): 12.8 days
Activity (Mus musculus [44]): Active
PGI (Plasmodium falciparum [45]): 94%
inhibition at 20 µM (Plasmodium falciparum [46]): 100%
Mean survival time (Mus musculus [47]): 9.4 days
inhibition at 500 µM (Plasmodium falciparum [48]): 100%
inhibition at 0.25 µM (Plasmodium falciparum [49]): 58%
inhibition at 100 µM (Plasmodium falciparum [50]): 100%
Activity (Mus musculus [51]): Active
inhibition at 50 µM (Plasmodium falciparum [52]): 100%
inhibition at 20 µM (Plasmodium falciparum [53]): 100%
inhibition at 0.5 µM (Plasmodium falciparum [54]): 75%
PGI (Plasmodium falciparum [55]): 83%
PGI (Plasmodium falciparum [56]): 100%
PGI (Plasmodium falciparum [57]): 100%
PGI (Plasmodium falciparum [58]): 73%

Source: ChEMBL document CHEMBL1132520, “Antimalarial activity of 3-hydroxyalkyl-2-methylene-propionic acid derivatives” (1999)
